The nature of data set [1]: clinical. The method, then:
This was an open-label, three-period, controlled before-and-after trial (China Clinical Trial Registry: ChiCTR1900024344). It was conducted at the Second Affiliated Hospital within Tianjin University of Traditional Chinese Medicine (Tianjin, China). The protocol was approved by the ethics committees of the Second Affiliated Hospital within Tianjin University of Traditional Chinese Medicine. Written informed consent was provided by all participants. This trial was in accordance with the Declaration of Helsinki 1964 and its later amendments.
Men and women aged 18–45 years participated in this trial if they were healthy and the EPHX1 A/A genotype was confirmed. The key exclusion criteria were coagulation disorders or allergies to drugs.
Our trial comprised three periods. […] After 3 days, individuals entered the second period, in which CDDP (10 pills, p. o., t.d.s.) was administered for 5 days.
Moreover, blood samples were taken from participants once a day before CDDP administration for assays of coagulation indices to ensure safety.

Data set [2] has as its system transfected EPHX1 A/G and BL cells. Kind of data set: MTT cell viability of transfected cells. To be noted: 0.0625–8.00 mg/mL for 24 h or 72 h, dose-dependent. In kind it is cell-based, human. As for the experimental part:
CDDP was manufactured by Tianjin Tasly Group (Tianjin, China). […] Transfected cells were plated evenly on a 96-well cell-culture plate with ∼8,000 cells/well. They were cultured for 24 h at 37°C. […] Subsequently, to each well was added 10 µL of 3-(4,5-Dimethylthiazol-2-yl)-2,5-diphenyltetrazolium bromide solution (5 mg/mL), and cells were allowed to incubate for an additional 4 h in an atmosphere of 5% CO2 at 37°C. Then, the cells were centrifugated and the […]. Finally, the blue-purple crystals were dissolved using dimethyl sulfoxide (150 µL) with agitation for 10 min. The absorbance of each well was determined at 490 nm. Cell viability (Supplementary Figure S1) was calculated according to the formula: Cell viability=absorbanceexperiment/absorbancecontrol×100%
Thus, the incubation time selected at 24 h.

[3] abbreviates: by dose adjustment (residual drug converted into a dose), third period: warfarin + CDDP.
Setting [4] is: by dose adjustment, first period: warfarin 3 mg p.o. alone.
[5] abbreviates: first period: warfarin 3 mg p.o. alone, HVs EPHX1 A/A.
Setting [6] is: third period: warfarin 3 mg p.o. + CDDP 10 pills p.o., HVs EPHX1 A/A.

Consider three compounds from publication PMC10192880 (Frontiers in Pharmacology, 2023).

Consider `CC(=O)C[C@H](c1ccccc1)c1c(O)c2ccccc2oc1=O` [R-Warfarin], for which, in data set [1] (setting [3]), the AUC0-144 is reported as 14594 ± 3088 ng/h/mL, the Cmax was determined as 273.9 ± 58.10 ng/mL, the Tmax is on record as 0.7143 ± 0.3934 h and the Vd was 18445 ± 2408 mL. In data set [1] (setting [4]), the AUC0-144 is listed as 11630 ± 2938 ng/h/mL, the CL worked out at 210.3 ± 57.13 mL/h, the maximum concentration (Cmax) stood at 204.6 ± 71.38 ng/mL and the time of peak concentration (Tmax) is 1.857 ± 1.435 h. Besides, the Vd in data set [1] (setting [4]) is listed as 20505 ± 4506 mL. Moreover, in data set [1] (setting [5]), the AUC0-144 turned out to be 11630 ± 2938 ng/h/mL, the CL was found to be 210.3 ± 57.13 mL/h, the peak concentration (Cmax) is on record as 204.6 ± 71.38 ng/mL and the time of peak concentration (Tmax) is on record as 1.857 ± 1.435 h. Moreover, the Vd in data set [1] (setting [5]) turned out to be 20505 ± 4506 mL. Also, in data set [1] (setting [6]), the AUC0-144 was 14594 ± 3088 ng/h/mL, the CL is given as 164.8 ± 51.16 mL/h, the Cmax came out at 273.9 ± 58.10 ng/mL and the Tmax amounted to 0.7143 ± 0.3934 h. Further, in data set [1] (setting [6]), the Vd amounted to 16283 ± 2164 mL.
For the compound `CC(=O)CC(c1ccccc1)c1c(O)c2ccccc2oc1=O` (centres unmarked) [Warfarin], in data set [1] (both, human, in vivo, po, 3 mg), the CL is given as 144.9 ± 36.87 mL/h, the highest level (Cmax) was 403 ± 148 ng/mL, the Tmax turned out to be 1.86 ± 1.44 h and the Vd was determined as 13393 ± 3036 mL. The “cells' viability” value in data set [2] is given as “significantly decreased”.
Regarding `CC(=O)C[C@@H](c1ccccc1)c1c(O)c2ccccc2oc1=O` [S-Warfarin], in data set [1] (setting [3]), the AUC0-144 was found to be 7223 ± 1727 ng/h/mL, the CL worked out at 423.5 ± 91.18 mL/h, the Cmax is reported as 261.9 ± 54.50 ng/mL and the Tmax is reported as 0.714 ± 0.393 h. In data set [1] (setting [3]), the Vd is given as 32429 ± 3754 mL. For the same compound, in data set [1] (setting [4]), the AUC0-144 is reported as 5812 ± 1632 ng/h/mL, the CL is listed as 466.0 ± 109.7 mL/h, the maximum concentration (Cmax) is reported as 199.0 ± 76.90 ng/mL and the Tmax was determined as 1.500 ± 1.414 h. In data set [1] (setting [4]), this compound returned a Vd of 37594 ± 9569 mL. In data set [1] (setting [5]), the AUC0-144 was 5812 ± 1632 ng/h/mL, the CL is listed as 466.0 ± 109.7 mL/h, the Cmax stood at 199.0 ± 76.90 ng/mL and the Tmax amounted to 1.500 ± 1.414 h. This compound also came in with a Vd in data set [1] (setting [5]) of 37594 ± 9569 mL. Besides, in data set [1] (setting [6]), the AUC0-144 is reported as 7223 ± 1727 ng/h/mL, the CL was found to be 374.1 ± 82.69 mL/h, the highest concentration (Cmax) is 261.9 ± 54.50 ng/mL and the time of peak concentration (Tmax) is 0.714 ± 0.393 h. Also, the Vd in data set [1] (setting [6]) turned out to be 28630 ± 3437 mL.
